Measured values taken from the NIST ThermoML archive (doi:10.1021/acs.jced.5b00989).

Experiment: molar heat capacity at constant pressure; xn = mol fraction of the nth substance listed
Conditions: 100 kPa, Liquid, Small sample (50 mg) DSC

C[P+](c1ccccc1)(c1ccccc1)c1ccccc1.[Br-] [methyltriphenylphosphonium bromide] + O=C(O)CC(=O)O
x1 = 0.4
Conditions	molar heat capacity at constant pressure [J/K/mol]
298.15 K	336.9
300.65 K	338
303.15 K	339.2
305.65 K	340
308.15 K	341
310.65 K	342.1
313.15 K	343.1
315.65 K	343.9
318.15 K	345.2
320.65 K	346
323.15 K	346.6
325.65 K	347.4
328.15 K	348.4
330.65 K	350.1
333.15 K	350.3
335.65 K	350.7
338.15 K	351.3
340.65 K	351.5
343.15 K	351.9
345.65 K	352.1
348.15 K	352.5
350.65 K	354
353.15 K	354.2

C[P+](c1ccccc1)(c1ccccc1)c1ccccc1.[Br-] [methyltriphenylphosphonium bromide] + OCC(O)CO
x1 = 0.25
Conditions	molar heat capacity at constant pressure [J/K/mol]
298.15 K	328.5
300.65 K	329.6
303.15 K	330.5
305.65 K	331.6
308.15 K	332.7
310.65 K	333.7
313.15 K	334.8
315.65 K	335.8
318.15 K	336.5
320.65 K	338.1
323.15 K	339.4
325.65 K	339.6
328.15 K	340.8
330.65 K	341.8
333.15 K	342.6
335.65 K	343.5
338.15 K	344.6
340.65 K	345.7
343.15 K	346.7
345.65 K	347.8
348.15 K	347.9
350.65 K	348.3
353.15 K	350.2

C[P+](c1ccccc1)(c1ccccc1)c1ccccc1.[Br-] [methyltriphenylphosphonium bromide] + OCCO
x1 = 0.2
Conditions	molar heat capacity at constant pressure [J/K/mol]
298.15 K	237.6
300.65 K	238.6
303.15 K	239.4
305.65 K	240.8
308.15 K	241.6
310.65 K	242.4
313.15 K	243.4
315.65 K	244.5
318.15 K	245.2
320.65 K	246.1
323.15 K	247.2
325.65 K	247.9
328.15 K	248.9
330.65 K	249.8
333.15 K	250.8
335.65 K	251.8
338.15 K	252.7
340.65 K	253.5
343.15 K	254.3
345.65 K	255
348.15 K	255.5
350.65 K	255
353.15 K	256.7

O=C(O)CC(=O)O [propanedioic acid] + CCCC[N+](CCCC)(CCCC)CCCC.[Cl-]
x2 = 0.25
Conditions	molar heat capacity at constant pressure [J/K/mol]
298.2 K	299.8
300.7 K	302.6
303.2 K	305.7
305.7 K	309.4
308.2 K	313.3
310.7 K	316.9
313.2 K	320.6
315.7 K	323.7
318.2 K	324.9
320.7 K	328.8
323.2 K	333.3
325.7 K	335.9
328.2 K	337.5
330.7 K	339.2
333.2 K	339.5
335.7 K	340
338.2 K	340.2
340.7 K	340.6
343.2 K	341.1
345.7 K	341.2
348.2 K	341.7
350.7 K	342
353.2 K	342.8

O=C(O)CC(=O)O [propanedioic acid] + C[N+](C)(C)CCO.[Cl-]
x2 = 0.5
Conditions	molar heat capacity at constant pressure [J/K/mol]
298.15 K	226.9
300.65 K	227.6
303.15 K	228.3
305.65 K	228.8
308.15 K	229.4
310.65 K	230.2
313.15 K	230.6
315.65 K	231.1
318.15 K	231.7
320.65 K	232.3
323.15 K	232.7
325.65 K	233.2
328.15 K	233.8
330.65 K	234.3
333.15 K	234.9
335.65 K	235.8
338.15 K	237
340.65 K	238
343.15 K	238.4
345.65 K	238.9
348.15 K	239.5
350.65 K	239.9
353.15 K	240.8

CCCC[N+](CCCC)(CCCC)CCCC.[Cl-] [tetrabutylammonium chloride] + NC(N)=O
x1 = 0.8
Conditions	molar heat capacity at constant pressure [J/K/mol]
308.2 K	590
310.7 K	593
313.2 K	598
315.7 K	601.2
318.2 K	602.6
320.7 K	600.6
323.2 K	601.5
325.7 K	602.9
328.2 K	601.7
330.7 K	603
333.2 K	604.9
335.7 K	605.1
338.2 K	603.2
340.7 K	604
343.2 K	604.4
345.7 K	605.2
348.2 K	604.8
350.7 K	605.4
353.2 K	605.9
